What was measured:
Assay in all cases: SILAC LC-MS ABPP
Format in all cases: cell-based
Conditions in all cases: 25 μM 2 h, live DM93 cells
Q8IX04 = target: T1, Q8IX04 (Homo sapiens, UniProt Q8IX04)
T1 construct: endogenous in cells; host or cells: DM93 cells (SILAC), live-cell treatment
Summary of the method: (§1)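 DM93 SILAC cells, ligand 25 μM vs DMSO, 2 h; HHS-475 100 μM, 2 h; CuAAC desthiobiotin tag; 1:1 pool; trypsin; avidin enrichment; LC-MS/MS site quantification.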

O60828 = target: T2, O60828 (Homo sapiens, UniProt O60828)
T2 construct: endogenous in cells; host or cells: DM93
Summary of the method: as §1

P52597 = target: T3, P52597 (Homo sapiens, UniProt P52597)
T3 construct: endogenous in cells; host or cells: DM93 cells (SILAC)
T3 sequence (P52597 whole entry): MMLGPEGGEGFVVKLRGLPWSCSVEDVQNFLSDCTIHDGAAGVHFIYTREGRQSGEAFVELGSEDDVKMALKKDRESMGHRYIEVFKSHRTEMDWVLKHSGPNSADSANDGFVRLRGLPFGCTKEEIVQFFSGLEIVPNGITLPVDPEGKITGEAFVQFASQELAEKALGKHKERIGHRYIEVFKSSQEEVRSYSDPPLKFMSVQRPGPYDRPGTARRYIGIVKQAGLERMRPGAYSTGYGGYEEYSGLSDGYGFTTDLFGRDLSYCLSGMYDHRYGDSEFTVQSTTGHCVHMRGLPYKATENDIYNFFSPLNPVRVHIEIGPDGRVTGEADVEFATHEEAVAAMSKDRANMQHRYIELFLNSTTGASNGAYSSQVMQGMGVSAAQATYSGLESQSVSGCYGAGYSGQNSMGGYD
Summary of the method: as §1

P48147 = target: T4, P48147 (Homo sapiens, UniProt P48147)
T4 construct: endogenous in cells; host or cells: DM93 cells (SILAC)
T4 sequence (P48147 whole entry): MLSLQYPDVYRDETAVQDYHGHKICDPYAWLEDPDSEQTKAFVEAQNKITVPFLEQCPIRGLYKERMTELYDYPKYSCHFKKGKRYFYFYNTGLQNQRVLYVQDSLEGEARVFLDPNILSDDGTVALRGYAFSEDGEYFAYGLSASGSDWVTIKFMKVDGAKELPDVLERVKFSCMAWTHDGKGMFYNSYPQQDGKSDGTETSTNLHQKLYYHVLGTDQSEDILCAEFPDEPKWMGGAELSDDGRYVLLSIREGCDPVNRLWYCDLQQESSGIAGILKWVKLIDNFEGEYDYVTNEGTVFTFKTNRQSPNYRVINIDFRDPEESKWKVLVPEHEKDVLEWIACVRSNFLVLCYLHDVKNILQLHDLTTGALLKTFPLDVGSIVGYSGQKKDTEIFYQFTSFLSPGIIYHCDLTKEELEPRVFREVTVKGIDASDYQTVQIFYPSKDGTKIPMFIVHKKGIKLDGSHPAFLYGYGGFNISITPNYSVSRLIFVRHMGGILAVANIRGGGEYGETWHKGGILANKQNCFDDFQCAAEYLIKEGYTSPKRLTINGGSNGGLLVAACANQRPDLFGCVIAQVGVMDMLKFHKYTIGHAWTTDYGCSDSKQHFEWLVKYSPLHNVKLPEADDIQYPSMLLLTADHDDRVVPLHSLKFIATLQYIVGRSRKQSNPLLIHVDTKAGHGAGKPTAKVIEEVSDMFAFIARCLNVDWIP
Summary of the method: as §1

Q9NUJ1 = target: T5, Q9NUJ1 (Homo sapiens, UniProt Q9NUJ1)
T5 construct: endogenous in cells; host or cells: DM93 cells (SILAC), treated live; soluble proteome analysed
Summary of the method: as §1

P02794 = target: T6, P02794 (Homo sapiens, UniProt P02794)
T6 construct: endogenous in cells; host or cells: DM93 cells (SILAC)
T6 sequence (P02794 whole entry): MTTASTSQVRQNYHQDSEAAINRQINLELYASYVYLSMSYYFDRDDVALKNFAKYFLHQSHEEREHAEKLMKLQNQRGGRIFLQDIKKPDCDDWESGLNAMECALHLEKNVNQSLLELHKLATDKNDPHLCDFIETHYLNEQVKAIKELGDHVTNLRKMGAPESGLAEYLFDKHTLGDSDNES
Summary of the method: as §1

Q9C0C2 = target: T7, Q9C0C2 (Homo sapiens, UniProt Q9C0C2)
T7 construct: endogenous in cells; host or cells: DM93 cells (SILAC), treated live; soluble proteome analysed
T7 sequence (Q9C0C2 whole entry): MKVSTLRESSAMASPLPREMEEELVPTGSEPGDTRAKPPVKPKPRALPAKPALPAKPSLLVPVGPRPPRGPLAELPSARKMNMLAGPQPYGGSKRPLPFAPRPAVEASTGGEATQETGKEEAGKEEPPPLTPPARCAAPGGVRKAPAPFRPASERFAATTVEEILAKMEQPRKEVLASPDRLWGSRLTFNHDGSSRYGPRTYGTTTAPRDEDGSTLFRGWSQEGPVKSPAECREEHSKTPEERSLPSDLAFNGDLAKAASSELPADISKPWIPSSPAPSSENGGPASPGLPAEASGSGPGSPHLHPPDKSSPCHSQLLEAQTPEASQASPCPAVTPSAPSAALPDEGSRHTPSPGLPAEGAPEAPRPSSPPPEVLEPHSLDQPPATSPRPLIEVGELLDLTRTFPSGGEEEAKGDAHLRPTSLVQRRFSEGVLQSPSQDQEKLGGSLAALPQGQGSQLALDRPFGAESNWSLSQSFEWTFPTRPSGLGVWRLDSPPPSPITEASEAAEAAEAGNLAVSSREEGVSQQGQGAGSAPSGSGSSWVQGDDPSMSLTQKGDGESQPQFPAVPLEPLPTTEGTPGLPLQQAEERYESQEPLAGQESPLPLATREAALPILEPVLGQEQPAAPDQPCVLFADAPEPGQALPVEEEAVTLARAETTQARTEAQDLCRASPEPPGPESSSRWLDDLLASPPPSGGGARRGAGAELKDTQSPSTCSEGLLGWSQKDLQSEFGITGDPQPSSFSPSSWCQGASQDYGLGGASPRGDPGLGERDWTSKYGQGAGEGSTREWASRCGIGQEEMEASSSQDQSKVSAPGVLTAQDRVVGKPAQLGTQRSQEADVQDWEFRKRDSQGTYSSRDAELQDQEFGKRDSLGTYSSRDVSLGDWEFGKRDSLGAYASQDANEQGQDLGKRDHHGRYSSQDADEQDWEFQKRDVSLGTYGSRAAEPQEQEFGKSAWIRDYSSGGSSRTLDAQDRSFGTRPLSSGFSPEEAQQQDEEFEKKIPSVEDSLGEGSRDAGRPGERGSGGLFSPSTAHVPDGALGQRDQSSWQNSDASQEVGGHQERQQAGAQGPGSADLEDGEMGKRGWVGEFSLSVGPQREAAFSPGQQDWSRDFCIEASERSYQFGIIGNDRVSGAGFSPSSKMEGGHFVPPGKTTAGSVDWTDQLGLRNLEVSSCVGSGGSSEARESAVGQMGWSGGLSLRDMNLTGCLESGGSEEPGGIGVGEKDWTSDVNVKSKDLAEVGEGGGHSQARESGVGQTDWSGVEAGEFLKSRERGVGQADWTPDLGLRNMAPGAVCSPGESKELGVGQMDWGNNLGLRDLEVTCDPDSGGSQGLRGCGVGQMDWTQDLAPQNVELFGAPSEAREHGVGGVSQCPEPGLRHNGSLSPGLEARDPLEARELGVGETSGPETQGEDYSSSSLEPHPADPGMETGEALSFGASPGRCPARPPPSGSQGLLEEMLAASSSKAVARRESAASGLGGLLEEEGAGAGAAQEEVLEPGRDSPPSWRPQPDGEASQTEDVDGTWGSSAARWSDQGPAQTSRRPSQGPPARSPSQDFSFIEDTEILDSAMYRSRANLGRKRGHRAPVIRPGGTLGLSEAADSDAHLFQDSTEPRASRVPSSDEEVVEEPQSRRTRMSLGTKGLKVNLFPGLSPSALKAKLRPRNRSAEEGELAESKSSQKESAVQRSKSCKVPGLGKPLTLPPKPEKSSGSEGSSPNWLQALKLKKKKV
Summary of the method: as §1

P56945 = target: T8, P56945 (Homo sapiens, UniProt P56945)
T8 construct: Probe-modified proteins from the soluble fraction were conjugated to a desthiobiotin-azide tag; endogenous in cells; host or cells: DM93 cells (SILAC)
Summary of the method: as §1

P18669 = target: T9, P18669 (Homo sapiens, UniProt P18669)
T9 construct: endogenous in cells; host or cells: DM93 (SILAC)
Summary of the method: as §1

P49721 = target: T10, P49721 (Homo sapiens, UniProt P49721)
T10 construct: endogenous in cells; host or cells: DM93 cells (SILAC)
Summary of the method: as §1

P82650 = target: T11, P82650 (Homo sapiens, UniProt P82650)
T11 construct: performing SuTEx compound screening directly in cells; endogenous in cells; host or cells: DM93 cells (SILAC)
Summary of the method: as §1

P61978 = target: T12, P61978 (Homo sapiens, UniProt P61978)
T12 construct: performing SuTEx compound screening directly in cells; endogenous in cells; host or cells: DM93 cells (SILAC)
Summary of the method: as §1

Q92620 = target: T13, Q92620 (Homo sapiens, UniProt Q92620)
T13 construct: endogenous in cells; host or cells: DM93 cells (SILAC), live-cell treatment
T13 sequence (Q92620 whole entry): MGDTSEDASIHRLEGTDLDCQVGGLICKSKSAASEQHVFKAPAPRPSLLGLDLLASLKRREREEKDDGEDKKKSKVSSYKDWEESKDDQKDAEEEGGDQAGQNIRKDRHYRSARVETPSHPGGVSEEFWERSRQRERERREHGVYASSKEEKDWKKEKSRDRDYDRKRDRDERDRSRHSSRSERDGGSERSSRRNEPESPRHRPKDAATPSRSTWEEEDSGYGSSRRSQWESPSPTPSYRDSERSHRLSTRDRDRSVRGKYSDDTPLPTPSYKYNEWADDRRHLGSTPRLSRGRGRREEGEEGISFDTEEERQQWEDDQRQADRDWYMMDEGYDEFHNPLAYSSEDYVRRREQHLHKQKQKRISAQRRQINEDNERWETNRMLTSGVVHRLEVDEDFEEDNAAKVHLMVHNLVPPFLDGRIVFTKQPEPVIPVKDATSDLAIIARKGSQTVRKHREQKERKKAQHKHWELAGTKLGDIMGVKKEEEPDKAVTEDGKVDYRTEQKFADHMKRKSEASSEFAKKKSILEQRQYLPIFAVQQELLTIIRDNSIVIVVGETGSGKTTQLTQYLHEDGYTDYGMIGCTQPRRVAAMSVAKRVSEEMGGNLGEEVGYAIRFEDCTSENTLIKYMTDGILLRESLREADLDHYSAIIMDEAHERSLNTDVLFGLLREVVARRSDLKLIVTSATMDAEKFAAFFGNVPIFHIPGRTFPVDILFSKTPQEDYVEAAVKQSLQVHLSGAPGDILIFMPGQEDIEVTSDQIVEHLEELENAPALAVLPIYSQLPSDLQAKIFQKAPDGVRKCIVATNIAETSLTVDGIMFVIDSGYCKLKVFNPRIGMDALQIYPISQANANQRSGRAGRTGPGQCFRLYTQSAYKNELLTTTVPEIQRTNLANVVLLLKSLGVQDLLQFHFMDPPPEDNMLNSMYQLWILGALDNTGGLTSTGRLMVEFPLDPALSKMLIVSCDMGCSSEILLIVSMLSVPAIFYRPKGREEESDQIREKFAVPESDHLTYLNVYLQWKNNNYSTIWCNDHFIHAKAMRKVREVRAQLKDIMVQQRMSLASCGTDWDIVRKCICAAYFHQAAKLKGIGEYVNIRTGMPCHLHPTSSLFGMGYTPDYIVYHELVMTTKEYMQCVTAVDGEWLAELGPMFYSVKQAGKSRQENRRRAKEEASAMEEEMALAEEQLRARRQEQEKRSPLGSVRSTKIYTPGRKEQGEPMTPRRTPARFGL
Summary of the method: as §1

Q9HAU0 = target: T14, Q9HAU0 (Homo sapiens, UniProt Q9HAU0)
T14 construct: endogenous in cells; host or cells: DM93 cells (SILAC), treated live; soluble proteome analysed
Summary of the method: as §1

P30533 = target: T15, P30533 (Homo sapiens, UniProt P30533)
T15 construct: endogenous in cells; host or cells: DM93 (SILAC)
Summary of the method: as §1

P78537 = target: T16, P78537 (Homo sapiens, UniProt P78537)
T16 construct: performing SuTEx compound screening directly in cells; endogenous in cells; host or cells: DM93 cells (SILAC)
T16 sequence (P78537 whole entry): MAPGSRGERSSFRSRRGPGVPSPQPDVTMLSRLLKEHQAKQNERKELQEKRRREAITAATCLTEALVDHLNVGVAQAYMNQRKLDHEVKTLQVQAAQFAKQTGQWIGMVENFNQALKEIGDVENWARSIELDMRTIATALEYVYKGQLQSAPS
Summary of the method: as §1

P20618 = target: T17, P20618 (Homo sapiens, UniProt P20618)
T17 construct: endogenous in cells; host or cells: DM93 (SILAC)
Summary of the method: as §1

Q12874 = target: T18, Q12874 (Homo sapiens, UniProt Q12874)
T18 construct: performing SuTEx compound screening directly in cells; endogenous in cells; host or cells: DM93 cells (SILAC)
T18 sequence (Q12874 whole entry): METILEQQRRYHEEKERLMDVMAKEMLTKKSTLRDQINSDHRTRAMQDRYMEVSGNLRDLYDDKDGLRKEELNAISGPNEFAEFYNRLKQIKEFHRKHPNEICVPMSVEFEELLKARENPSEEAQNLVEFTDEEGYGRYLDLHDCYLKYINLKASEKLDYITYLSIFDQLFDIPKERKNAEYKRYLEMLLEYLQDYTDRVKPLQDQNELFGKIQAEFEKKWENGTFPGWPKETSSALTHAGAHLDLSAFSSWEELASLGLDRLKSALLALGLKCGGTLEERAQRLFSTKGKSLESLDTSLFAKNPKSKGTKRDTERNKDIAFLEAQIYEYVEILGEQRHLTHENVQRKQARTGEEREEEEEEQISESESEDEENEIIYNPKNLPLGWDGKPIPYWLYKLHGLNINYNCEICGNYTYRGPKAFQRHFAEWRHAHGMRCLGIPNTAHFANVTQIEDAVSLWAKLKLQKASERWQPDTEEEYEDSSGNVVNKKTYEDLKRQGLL
Summary of the method: as §1

O=C(NC1CC1)c1ccc(S(=O)(=O)n2cncn2)cc1 [HHS-0101, 4-((1H-1,2,4-triazol-1-yl)sulfonyl)-N-cyclopropylbenzamide]
liganded tyrosine site 158 (Q8IX04): HHS0101.Y|HHS0201.Y|HHS0301.Y (tyrosine sites that showed >80% reductions (SR >5) in probe labeling in cells treated with compounds (liganded sites)) | liganded tyrosine site 209 (O60828): HHS0101.Y|HHS0401.Y (tyrosine sites that showed >80% reductions (SR >5) in probe labeling in cells treated with compounds (liganded sites)) | liganded tyrosine site 210 (P52597): HHS0101.Y|HHS0201.Y|HHS0701.Y (tyrosine sites that showed >80% reductions (SR >5) in probe labeling in cells treated with compounds (liganded sites)) | liganded tyrosine site 298 (P52597): HHS0101.Y|HHS0701.Y (tyrosine sites that showed >80% reductions (SR >5) in probe labeling in cells treated with compounds (liganded sites))

O=C(NCC1CC1)c1ccc(S(=O)(=O)n2cncn2)cc1 [HHS-0201, 4-((1H-1,2,4-triazol-1-yl)sulfonyl)-N-(cyclopropylmethyl)benzamide]
liganded tyrosine site 473 (P48147): HHS0201.Y (tyrosine sites that showed >80% reductions (SR >5) in probe labeling in cells treated with compounds (liganded sites)) | liganded tyrosine site 215 (Q9NUJ1): HHS0201.Y|HHS0701.Y (tyrosine sites that showed >80% reductions (SR >5) in probe labeling in cells treated with compounds (liganded sites)) | liganded tyrosine site 13 (P02794): HHS0201.Y (tyrosine sites that showed >80% reductions (SR >5) in probe labeling in cells treated with compounds (liganded sites)) | liganded tyrosine site 897 (Q9C0C2): HHS0201.Y|HHS0301.Y|HHS0401.Y|HHS0701.Y (tyrosine sites that showed >80% reductions (SR >5) in probe labeling in cells treated with compounds (liganded sites)) | liganded tyrosine site 267 (P56945): HHS0201.Y (tyrosine sites that showed >80% reductions (SR >5) in probe labeling in cells treated with compounds (liganded sites))

O=C(NCc1ccccc1)c1ccc(S(=O)(=O)n2cncn2)cc1 [HHS-0401, 4-((1H-1,2,4-triazol-1-yl)sulfonyl)-N-benzylbenzamide]
liganded tyrosine site 119 (P18669): HHS0401.Y (tyrosine sites that showed >80% reductions (SR >5) in probe labeling in cells treated with compounds (liganded sites))

O=C(c1ccc(S(=O)(=O)n2cncn2)cc1)N1CCC(c2ccccc2)CC1 [HHS-0701, (4-((1H-1,2,4-triazol-1-yl)sulfonyl)phenyl)(4-phenylpiperidin-1-yl)methanone]
liganded tyrosine site 134 (P49721): HHS0701.Y (tyrosine sites that showed >80% reductions (SR >5) in probe labeling in cells treated with compounds (liganded sites)) | liganded tyrosine site 163 (P82650): HHS0701.Y (tyrosine sites that showed >80% reductions (SR >5) in probe labeling in cells treated with compounds (liganded sites)) | liganded tyrosine site 138 (P61978): HHS0701.Y (tyrosine sites that showed >80% reductions (SR >5) in probe labeling in cells treated with compounds (liganded sites)) | liganded tyrosine site 261 (Q92620): HHS0701.Y (tyrosine sites that showed >80% reductions (SR >5) in probe labeling in cells treated with compounds (liganded sites)) | liganded tyrosine site 553 (Q9HAU0): HHS0701.Y (tyrosine sites that showed >80% reductions (SR >5) in probe labeling in cells treated with compounds (liganded sites))

O=C(NC1CCCCC1)c1ccc(S(=O)(=O)n2cncn2)cc1 [HHS-0301, 4-((1H-1,2,4-triazol-1-yl)sulfonyl)-N-cyclohexylbenzamide]
liganded tyrosine site 336 (P30533): HHS0301.Y|HHS0701.Y (tyrosine sites that showed >80% reductions (SR >5) in probe labeling in cells treated with compounds (liganded sites)) | liganded tyrosine site 78 (P78537): HHS0301.Y|HHS0401.Y|HHS0701.Y (tyrosine sites that showed >80% reductions (SR >5) in probe labeling in cells treated with compounds (liganded sites)) | liganded tyrosine site 135 (P20618): HHS0301.Y (tyrosine sites that showed >80% reductions (SR >5) in probe labeling in cells treated with compounds (liganded sites)) | liganded tyrosine site 139 (Q12874): HHS0301.Y (tyrosine sites that showed >80% reductions (SR >5) in probe labeling in cells treated with compounds (liganded sites))
